Experimental findings from US20130217908A1, “STABILISATION OF RADIOPHARMACEUTICAL PRECURSORS” (GE HEALTHCARE LIMITED, priority 2010, published 2013) are described below.

Data set [1] is described as follows: Storage stability of the precursor of formula II with or without a drying agent, degradation by 19F NMR. Format: physicochemical. As for the experimental part: To test the stability of the precursor of formula II when packed with a drying agent, a sample of the precursor was analysed by ^19F and ^1H measurements.
The following drying agents were used:
Molecular sieve: 0.4 nm, Merck, Art. 5708, beads about 2 mm, pore size 4A Silica: Kiselgel, Merck, product no. 1.01969.5000
The drying agents used in the tests are typical drying agents for removing water from solvents and desiccators. The drying agents were both dried at 120° C. for about 90 hours before use.
The storage conditions for the precursor together with a drying agent were tested by storing together in the bottom of a small sample glass (mixed together) placed on a shelf in the lab (i.e. at room temperature). Also some samples without drying agent were set up. The first analysis of the samples with solid product was performed after 3.5 months storage and a second analysis was carried out after 5 months storage.

Data set [2] can be described thus: Earlier stability testing of the compound of formula II at set storage temperatures. Format: physicochemical.
[3] abbreviates: solid, stored in a small sample glass at room temperature.
[4] abbreviates: solid, stored in a small sample glass at room temperature, listed as precursor.
[5] abbreviates: stored in freezer, reference, no drying agent.

SMILES strings stand for the structures.

`CCOC(=O)[C@]1(NC(=O)OC(C)(C)C)C[C@@H](OS(=O)(=O)C(F)(F)F)C1` [PRECURSOR, 1-(N-(t-butoxycarbonyl)amino)-3-[((trifluoromethyl)sulfonyl)oxy]-cyclobutane-1-carboxylic acid ethyl ester]: the “19F NMR results, degradation (mole %) after 3.5 months” value is given as 30.7 mole % in data set [1] (setting [3]), “about 30 mole %” in data set [1] (setting [4]) and 0.7 mole % in data set [1] (setting [5]). Further, the figures for the “19F NMR results, degradation (mole %) after 5 months” value in data set [1] (setting [3]), in data set [1] (setting [4]) and in data set [1] (setting [5]) were 96.6 mole %, “about 97 mole %” and 0.6 mole %, respectively. The “hygroscopicity (observation)” value in data set [2] is “hygroscopic”. Moreover, the “period over which the compound is stable” value in data set [2] (stability testing at 25° C.) is recorded as around 1 month. The “stability at storage conditions” value in data set [2] (storage between −20° C. and −5° C.) is on record as “acceptable stability”.
